From the kinase profiling compilation of Christmann-Franck et al. (2016)

What was measured:
Experiment in all cases: KINOMEscan competition binding
[1] = molecular target: TLK2 (human) (UniProt Q86UE8)
[2] = molecular target: TYRO3 (human) (UniProt Q06418)
[3] = molecular target: ADCK3 (human) (UniProt Q8NI60)
[4] = system: CPK1 (P.falciparum)
[5] = molecular target: CSNK1A1L (human) (UniProt Q8N752)
[6] = molecular target: TLK1 (human) (UniProt Q9UKI8)
[7] = molecular target: STK32B (human) (UniProt Q9NY57)
[8] = molecular target: MAPK12 (human) (UniProt P53778)
Chain of MAPK12 (human) (P53778 whole entry, looked up): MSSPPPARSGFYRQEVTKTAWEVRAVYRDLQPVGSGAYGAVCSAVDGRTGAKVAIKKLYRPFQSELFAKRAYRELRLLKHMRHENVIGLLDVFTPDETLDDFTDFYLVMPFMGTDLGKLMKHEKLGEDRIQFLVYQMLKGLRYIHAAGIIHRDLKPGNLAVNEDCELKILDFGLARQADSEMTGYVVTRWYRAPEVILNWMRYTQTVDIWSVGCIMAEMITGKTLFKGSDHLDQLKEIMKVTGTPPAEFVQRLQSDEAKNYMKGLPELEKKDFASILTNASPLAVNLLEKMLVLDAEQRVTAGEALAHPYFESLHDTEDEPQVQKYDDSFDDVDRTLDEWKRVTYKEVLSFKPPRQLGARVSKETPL

[9] = molecular target: MAP2K3 (human) (UniProt P46734)
[10] = molecular target: MAP2K7 (human) (UniProt O14733)
[11] = system: FGFR3 (human), P22607 [G697C]
[12] = molecular target: TNK1 (human) (UniProt Q13470)
[13] = molecular target: LTK (human) (UniProt P29376)
[14] = molecular target: TAOK1 (human) (UniProt Q7L7X3)
[15] = molecular target: EPHB1 (human) (UniProt P54762)
[16] = molecular target: DAPK1 (human) (UniProt P53355)
[17] = molecular target: PAK1 (human) (UniProt Q13153)
[18] = molecular target: NUAK1 (human) (UniProt O60285)
[19] = molecular target: IGF1R (human) (UniProt P08069)
[20] = molecular target: TYK2 JH1 catalytic (human) (UniProt P29597)
Chain of TYK2 JH1 catalytic (human) (P29597 whole entry, looked up): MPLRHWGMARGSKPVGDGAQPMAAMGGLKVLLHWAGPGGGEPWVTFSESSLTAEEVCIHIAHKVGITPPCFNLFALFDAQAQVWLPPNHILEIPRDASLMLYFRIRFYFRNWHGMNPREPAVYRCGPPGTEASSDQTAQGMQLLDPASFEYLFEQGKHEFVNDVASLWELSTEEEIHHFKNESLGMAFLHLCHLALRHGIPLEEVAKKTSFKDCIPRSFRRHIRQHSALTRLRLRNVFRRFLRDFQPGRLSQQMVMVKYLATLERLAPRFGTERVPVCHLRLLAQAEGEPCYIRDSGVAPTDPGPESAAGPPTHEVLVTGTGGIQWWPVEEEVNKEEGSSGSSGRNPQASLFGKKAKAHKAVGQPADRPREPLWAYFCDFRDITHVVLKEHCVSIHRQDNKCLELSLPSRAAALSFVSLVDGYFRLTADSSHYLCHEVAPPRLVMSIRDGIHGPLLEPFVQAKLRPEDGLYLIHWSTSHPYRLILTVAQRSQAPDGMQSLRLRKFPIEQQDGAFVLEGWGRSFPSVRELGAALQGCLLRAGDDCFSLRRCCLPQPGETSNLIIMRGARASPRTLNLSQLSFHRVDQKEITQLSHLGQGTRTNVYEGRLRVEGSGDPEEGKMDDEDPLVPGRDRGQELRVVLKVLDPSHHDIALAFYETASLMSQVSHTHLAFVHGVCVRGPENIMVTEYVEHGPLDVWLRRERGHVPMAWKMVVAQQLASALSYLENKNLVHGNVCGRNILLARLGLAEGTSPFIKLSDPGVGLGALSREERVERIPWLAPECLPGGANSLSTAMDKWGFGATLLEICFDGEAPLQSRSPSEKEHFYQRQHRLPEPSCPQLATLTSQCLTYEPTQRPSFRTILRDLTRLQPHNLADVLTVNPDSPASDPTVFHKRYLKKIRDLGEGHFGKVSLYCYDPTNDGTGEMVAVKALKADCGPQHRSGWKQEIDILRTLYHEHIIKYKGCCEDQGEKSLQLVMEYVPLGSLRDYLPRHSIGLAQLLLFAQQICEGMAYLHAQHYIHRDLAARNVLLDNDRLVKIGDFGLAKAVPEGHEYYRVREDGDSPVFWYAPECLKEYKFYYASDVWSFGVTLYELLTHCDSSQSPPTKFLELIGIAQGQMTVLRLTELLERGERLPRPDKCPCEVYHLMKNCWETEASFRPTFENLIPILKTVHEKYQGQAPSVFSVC

[21] = molecular target: PIP4K2B (human) (UniProt P78356)
[22] = molecular target: RPS6KA2 KD1 (human) (UniProt Q15349)
[23] = molecular target: TNK2 (human) (UniProt Q07912)
[24] = molecular target: TAOK2 (human) (UniProt Q9UL54)
[25] = molecular target: ULK1 (human) (UniProt O75385)
[26] = molecular target: ACVR1B (human) (UniProt P36896)
[27] = molecular target: MAP2K4 (human) (UniProt P45985)
[28] = molecular target: STK35 (human) (UniProt Q8TDR2)
[29] = molecular target: STK25 (human) (UniProt O00506)
Chain of STK25 (human) (O00506 whole entry, looked up): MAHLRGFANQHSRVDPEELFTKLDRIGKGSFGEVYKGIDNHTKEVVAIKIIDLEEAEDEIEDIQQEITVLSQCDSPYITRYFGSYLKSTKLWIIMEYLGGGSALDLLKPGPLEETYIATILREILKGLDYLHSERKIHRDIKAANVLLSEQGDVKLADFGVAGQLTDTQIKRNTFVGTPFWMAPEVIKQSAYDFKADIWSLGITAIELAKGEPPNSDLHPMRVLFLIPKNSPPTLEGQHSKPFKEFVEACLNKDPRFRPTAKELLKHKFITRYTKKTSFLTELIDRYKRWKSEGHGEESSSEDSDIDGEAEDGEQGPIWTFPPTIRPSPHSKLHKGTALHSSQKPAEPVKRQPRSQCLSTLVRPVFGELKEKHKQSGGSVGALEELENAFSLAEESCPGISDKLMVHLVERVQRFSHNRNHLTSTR

[30] = system: MET (human), P08581 [Y1235D]
[31] = molecular target: CSNK1A1 (human) (UniProt P48729)
[32] = molecular target: TBK1 (human) (UniProt Q9UHD2)
[33] = molecular target: MELK (human) (UniProt Q14680)
[34] = molecular target: TEC (human) (UniProt P42680)
Chain of TEC (human) (P42680 whole entry, looked up): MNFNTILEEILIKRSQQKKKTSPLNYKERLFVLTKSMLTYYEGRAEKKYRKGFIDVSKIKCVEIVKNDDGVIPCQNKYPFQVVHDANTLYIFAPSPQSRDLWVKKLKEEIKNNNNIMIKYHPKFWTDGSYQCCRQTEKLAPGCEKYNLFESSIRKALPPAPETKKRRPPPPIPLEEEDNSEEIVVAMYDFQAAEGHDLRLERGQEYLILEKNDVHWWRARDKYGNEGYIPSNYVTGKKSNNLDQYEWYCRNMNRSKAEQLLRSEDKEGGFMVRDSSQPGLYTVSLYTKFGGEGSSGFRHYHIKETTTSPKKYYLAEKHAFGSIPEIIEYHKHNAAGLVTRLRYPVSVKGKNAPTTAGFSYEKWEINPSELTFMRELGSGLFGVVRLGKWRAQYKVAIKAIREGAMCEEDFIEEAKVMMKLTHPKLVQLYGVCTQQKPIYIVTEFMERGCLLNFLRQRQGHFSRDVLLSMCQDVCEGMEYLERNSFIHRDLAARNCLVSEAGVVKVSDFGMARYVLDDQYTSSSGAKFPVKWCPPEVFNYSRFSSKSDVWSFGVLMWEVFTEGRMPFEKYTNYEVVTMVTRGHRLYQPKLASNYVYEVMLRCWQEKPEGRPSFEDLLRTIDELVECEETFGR

[35] = molecular target: PAK3 (human) (UniProt O75914)
Chain of PAK3 (human) (O75914 whole entry, looked up): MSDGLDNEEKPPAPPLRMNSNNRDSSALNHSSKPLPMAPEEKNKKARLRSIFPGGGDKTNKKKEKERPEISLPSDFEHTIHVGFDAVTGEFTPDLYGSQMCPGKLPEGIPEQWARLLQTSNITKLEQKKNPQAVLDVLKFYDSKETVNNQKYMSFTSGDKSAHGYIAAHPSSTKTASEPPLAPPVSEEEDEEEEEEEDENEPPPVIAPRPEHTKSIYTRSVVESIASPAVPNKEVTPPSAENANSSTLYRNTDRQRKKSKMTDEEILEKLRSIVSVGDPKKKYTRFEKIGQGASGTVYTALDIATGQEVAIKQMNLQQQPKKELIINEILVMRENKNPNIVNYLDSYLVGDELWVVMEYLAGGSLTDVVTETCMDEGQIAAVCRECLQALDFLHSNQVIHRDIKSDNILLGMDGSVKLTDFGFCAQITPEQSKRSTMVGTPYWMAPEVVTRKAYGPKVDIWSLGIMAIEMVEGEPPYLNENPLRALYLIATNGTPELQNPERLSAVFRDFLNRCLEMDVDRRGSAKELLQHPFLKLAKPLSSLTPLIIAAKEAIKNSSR

[36] = molecular target: GRK4 (human) (UniProt P32298)
[37] = molecular target: RPS6KA6 KD2 (human) (UniProt Q9UK32)
[38] = molecular target: BMX (human) (UniProt P51813)
[39] = molecular target: CDK13 (human) (UniProt Q14004)
[40] = molecular target: PRKCD (human) (UniProt Q05655)
[41] = molecular target: RAF1 (human) (UniProt P04049)
[42] = molecular target: KIT (human), P10721 [V559D/T670I]
Chain of KIT (human), P10721 [V559D/T670I] (P10721 whole entry V559D/T670I, looked up): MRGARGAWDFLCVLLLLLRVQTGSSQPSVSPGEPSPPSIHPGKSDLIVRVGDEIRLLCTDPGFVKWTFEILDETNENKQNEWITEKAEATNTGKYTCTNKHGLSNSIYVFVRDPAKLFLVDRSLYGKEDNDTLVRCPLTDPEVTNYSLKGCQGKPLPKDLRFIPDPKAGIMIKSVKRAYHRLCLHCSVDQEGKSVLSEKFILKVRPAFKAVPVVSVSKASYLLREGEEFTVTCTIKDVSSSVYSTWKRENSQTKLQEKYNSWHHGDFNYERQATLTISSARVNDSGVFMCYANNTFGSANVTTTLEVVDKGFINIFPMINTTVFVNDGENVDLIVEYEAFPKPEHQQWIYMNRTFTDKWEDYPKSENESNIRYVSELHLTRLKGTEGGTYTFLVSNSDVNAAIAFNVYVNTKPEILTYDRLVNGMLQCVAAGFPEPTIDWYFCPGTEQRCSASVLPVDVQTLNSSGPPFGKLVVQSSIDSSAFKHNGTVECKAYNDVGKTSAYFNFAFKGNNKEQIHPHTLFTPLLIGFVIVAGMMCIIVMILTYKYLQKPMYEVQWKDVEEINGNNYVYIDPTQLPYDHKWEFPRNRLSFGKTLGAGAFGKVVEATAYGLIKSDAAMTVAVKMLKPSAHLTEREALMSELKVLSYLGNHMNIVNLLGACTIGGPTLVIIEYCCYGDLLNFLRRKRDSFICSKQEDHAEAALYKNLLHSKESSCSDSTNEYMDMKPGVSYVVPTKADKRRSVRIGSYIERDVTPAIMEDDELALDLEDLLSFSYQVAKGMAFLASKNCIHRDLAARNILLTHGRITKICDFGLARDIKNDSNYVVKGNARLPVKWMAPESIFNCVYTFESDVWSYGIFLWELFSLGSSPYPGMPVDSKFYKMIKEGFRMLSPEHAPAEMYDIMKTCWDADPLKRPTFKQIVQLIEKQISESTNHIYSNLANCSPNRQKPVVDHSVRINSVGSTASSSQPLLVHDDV

Chain of ADCK3 (human) (Q8NI60 whole entry, looked up): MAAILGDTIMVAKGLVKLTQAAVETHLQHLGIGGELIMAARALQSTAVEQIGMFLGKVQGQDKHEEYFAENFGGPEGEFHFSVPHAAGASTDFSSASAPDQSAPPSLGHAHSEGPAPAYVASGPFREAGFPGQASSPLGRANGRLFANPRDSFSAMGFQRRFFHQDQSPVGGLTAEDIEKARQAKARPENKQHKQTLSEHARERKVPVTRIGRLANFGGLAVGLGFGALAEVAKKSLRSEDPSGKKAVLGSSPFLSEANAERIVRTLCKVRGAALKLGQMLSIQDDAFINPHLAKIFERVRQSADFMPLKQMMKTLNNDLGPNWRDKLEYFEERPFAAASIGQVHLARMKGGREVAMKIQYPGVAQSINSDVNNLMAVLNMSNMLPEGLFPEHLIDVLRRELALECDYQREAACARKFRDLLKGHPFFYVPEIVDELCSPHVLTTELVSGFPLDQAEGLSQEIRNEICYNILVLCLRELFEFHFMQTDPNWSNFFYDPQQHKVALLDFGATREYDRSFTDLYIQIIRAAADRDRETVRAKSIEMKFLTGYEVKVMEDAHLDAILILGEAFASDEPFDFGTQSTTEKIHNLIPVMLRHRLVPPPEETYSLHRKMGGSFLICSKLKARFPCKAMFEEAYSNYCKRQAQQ

**Q.** What does the source list for CN(C)C/C=C/C(=O)Nc1cccc(C(=O)Nc2ccc(Nc3nccc(/C(C#N)=C4\Nc5ccccc5S4)n3)cc2)c1?
**A.** kinase still bound, per cent of control ([1]; compound 1.0 µM): 100%; kinase still bound, per cent of control ([2]; compound 1.0 µM): 100%; kinase still bound, per cent of control ([3]; compound 1.0 µM): 82%; kinase still bound, per cent of control ([4]; compound 1.0 µM): 96%; kinase still bound, per cent of control ([5]; compound 1.0 µM): 100%; kinase still bound, per cent of control ([6]; compound 1.0 µM): 100%; kinase still bound, per cent of control ([7]; compound 1.0 µM): 99%; kinase still bound, per cent of control ([8]; compound 1.0 µM): 100%; kinase still bound, per cent of control ([9]; compound 1.0 µM): 88%; kinase still bound, per cent of control ([10]; compound 1.0 µM): 100%; kinase still bound, per cent of control ([11]; compound 1.0 µM): 31%; kinase still bound, per cent of control ([12]; compound 1.0 µM): 15%; kinase still bound, per cent of control ([13]; compound 1.0 µM): 100%; kinase still bound, per cent of control ([14]; compound 1.0 µM): 74%; kinase still bound, per cent of control ([15]; compound 1.0 µM): 100%; kinase still bound, per cent of control ([16]; compound 1.0 µM): 100%; kinase still bound, per cent of control ([17]; compound 1.0 µM): 100%; kinase still bound, per cent of control ([18]; compound 1.0 µM): 100%; kinase still bound, per cent of control ([19]; compound 1.0 µM): 100%; kinase still bound, per cent of control ([20]; compound 1.0 µM): 72%; kinase still bound, per cent of control ([21]; compound 1.0 µM): 81%; kinase still bound, per cent of control ([22]; compound 1.0 µM): 98%; kinase still bound, per cent of control ([23]; compound 1.0 µM): 70%; kinase still bound, per cent of control ([24]; compound 1.0 µM): 100%; kinase still bound, per cent of control ([25]; compound 1.0 µM): 92%; kinase still bound, per cent of control ([26]; compound 1.0 µM): 96%; kinase still bound, per cent of control ([27]; compound 1.0 µM): 100%; kinase still bound, per cent of control ([28]; compound 1.0 µM): 97%; kinase still bound, per cent of control ([29]; compound 1.0 µM): 100%; kinase still bound, per cent of control ([30]; compound 1.0 µM): 100%; kinase still bound, per cent of control ([31]; compound 1.0 µM): 75%; kinase still bound, per cent of control ([32]; compound 1.0 µM): 100%; kinase still bound, per cent of control ([33]; compound 1.0 µM): 100%; kinase still bound, per cent of control ([34]; compound 1.0 µM): 100%; kinase still bound, per cent of control ([35]; compound 1.0 µM): 84%; kinase still bound, per cent of control ([36]; compound 1.0 µM): 78%; kinase still bound, per cent of control ([37]; compound 1.0 µM): 100%; kinase still bound, per cent of control ([38]; compound 1.0 µM): 88%; kinase still bound, per cent of control ([39]; compound 1.0 µM): 100%; kinase still bound, per cent of control ([40]; compound 1.0 µM): 47%; kinase still bound, per cent of control ([41]; compound 1.0 µM): 91%; Kd [42]: 160 nM; kinase still bound, per cent of control ([42]; compound 1.0 µM): 6.6%

**Q.** What does the source list for Cc1ccc(NC(=O)c2ccc(NC(=O)/C=C/CN(C)C)cc2)cc1Nc1nccc(-c2cccnc2)n1?
**A.** kinase still bound, per cent of control ([1]; compound 10.0 µM): 100%; kinase still bound, per cent of control ([2]; compound 10.0 µM): 100%; kinase still bound, per cent of control ([3]; compound 10.0 µM): 76%; kinase still bound, per cent of control ([4]; compound 10.0 µM): 86%; kinase still bound, per cent of control ([5]; compound 10.0 µM): 100%; kinase still bound, per cent of control ([6]; compound 10.0 µM): 74%; kinase still bound, per cent of control ([7]; compound 10.0 µM): 100%; kinase still bound, per cent of control ([8]; compound 10.0 µM): 94%; kinase still bound, per cent of control ([9]; compound 10.0 µM): 50%; kinase still bound, per cent of control ([10]; compound 10.0 µM): 100%; kinase still bound, per cent of control ([11]; compound 10.0 µM): 97%; kinase still bound, per cent of control ([12]; compound 10.0 µM): 8.7%; kinase still bound, per cent of control ([13]; compound 10.0 µM): 100%; kinase still bound, per cent of control ([14]; compound 10.0 µM): 46%; kinase still bound, per cent of control ([15]; compound 10.0 µM): 100%; kinase still bound, per cent of control ([16]; compound 10.0 µM): 72%; kinase still bound, per cent of control ([17]; compound 10.0 µM): 89%; kinase still bound, per cent of control ([18]; compound 10.0 µM): 100%; kinase still bound, per cent of control ([19]; compound 10.0 µM): 100%; kinase still bound, per cent of control ([20]; compound 10.0 µM): 92%; kinase still bound, per cent of control ([21]; compound 10.0 µM): 69%; kinase still bound, per cent of control ([22]; compound 10.0 µM): 76%; kinase still bound, per cent of control ([23]; compound 10.0 µM): 98%; kinase still bound, per cent of control ([24]; compound 10.0 µM): 61%; kinase still bound, per cent of control ([25]; compound 10.0 µM): 23%; kinase still bound, per cent of control ([26]; compound 10.0 µM): 70%; kinase still bound, per cent of control ([27]; compound 10.0 µM): 15%; kinase still bound, per cent of control ([28]; compound 10.0 µM): 82%; kinase still bound, per cent of control ([29]; compound 10.0 µM): 100%; kinase still bound, per cent of control ([30]; compound 10.0 µM): 100%; kinase still bound, per cent of control ([31]; compound 10.0 µM): 55%; kinase still bound, per cent of control ([32]; compound 10.0 µM): 64%; kinase still bound, per cent of control ([33]; compound 10.0 µM): 12%; kinase still bound, per cent of control ([34]; compound 10.0 µM): 100%; kinase still bound, per cent of control ([35]; compound 10.0 µM): 68%; kinase still bound, per cent of control ([36]; compound 10.0 µM): 88%; kinase still bound, per cent of control ([37]; compound 10.0 µM): 67%; kinase still bound, per cent of control ([38]; compound 10.0 µM): 100%; kinase still bound, per cent of control ([39]; compound 10.0 µM): 65%; kinase still bound, per cent of control ([40]; compound 10.0 µM): 96%; kinase still bound, per cent of control ([41]; compound 10.0 µM): 55%; kinase still bound, per cent of control ([42]; compound 10.0 µM): 18%
